Experimental findings from patent US20250221966A1, “RXFP1 AGONISTS” (BRISTOL-MYERS SQUIBB COMPANY, priority 2021, published 2025) are described below.

By EC50 is commonly meant the concentration that produces a half-maximal response.

For the assay, the target named is T1, human RXFP1 (Homo sapiens, UniProt Q9HBX9).
T1 construct: expressed in transfected cells
T1 sequence (Q9HBX9 1-757): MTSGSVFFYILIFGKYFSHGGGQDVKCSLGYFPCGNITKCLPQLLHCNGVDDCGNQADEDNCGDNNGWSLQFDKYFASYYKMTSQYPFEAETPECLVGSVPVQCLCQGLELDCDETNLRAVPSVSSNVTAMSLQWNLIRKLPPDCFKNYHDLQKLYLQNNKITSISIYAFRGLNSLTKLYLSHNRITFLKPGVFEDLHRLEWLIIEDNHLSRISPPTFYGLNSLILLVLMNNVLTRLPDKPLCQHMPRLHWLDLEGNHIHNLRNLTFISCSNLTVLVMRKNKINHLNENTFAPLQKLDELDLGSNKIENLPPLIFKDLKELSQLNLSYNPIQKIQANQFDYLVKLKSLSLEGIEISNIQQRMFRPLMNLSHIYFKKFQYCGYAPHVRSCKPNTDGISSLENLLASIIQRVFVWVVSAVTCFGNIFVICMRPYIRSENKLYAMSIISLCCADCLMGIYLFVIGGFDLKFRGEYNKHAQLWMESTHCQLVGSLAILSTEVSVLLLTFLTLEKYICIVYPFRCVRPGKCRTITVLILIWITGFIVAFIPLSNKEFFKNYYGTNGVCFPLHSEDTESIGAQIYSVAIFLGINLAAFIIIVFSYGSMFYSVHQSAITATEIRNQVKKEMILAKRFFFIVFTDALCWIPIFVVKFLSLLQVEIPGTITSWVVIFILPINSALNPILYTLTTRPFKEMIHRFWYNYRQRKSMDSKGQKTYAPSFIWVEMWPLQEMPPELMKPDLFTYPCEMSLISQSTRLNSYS
As to the kind of experiment: RXFP1 cAMP assay (hRXFP1 HEK293 cAMP assay, HTRF). The following applies: HEK293 cells stably expressing human RXFP1, 30 min at room temperature, read-out: cAMP hRXFP1 HEK293 Assay EC50. It is filed as cell-based. Here is the method:
RXFP1 Cyclic Adenosine Monophosphate (cAMP) Assays. […] Cells were dissociated and suspended in assay buffer. The assay buffer was HBSS buffer (with calcium and magnesium) containing 20 mM HEPES, 0.05% BSA, and 0.5 mM IBMX. Cells (3000 cells per well, except 1500 cell per well for HEK293 cells stably expressing human RXFP1) were added to 384-well Proxiplates (Perkin-Elmer). Cells were immediately treated with test compounds in DMSO (2% final) at final concentrations in the range of 0.010 nM to 50 μM. Cells were incubated for 30 min at room temperature. The level of intracellular cAMP was determined using the HTRF HiRange cAMP assay reagent kit (Cisbio) according to manufacturer's instructions. Solutions of cryptate conjugated anti-cAMP and d2 fluorophore-labelled cAMP were made in a supplied lysis buffer separately. Upon completion of the reaction, the cells were lysed with equal volume of the d2-cAMP solution and anti-cAMP solution. […] The potency and activity of a compound to […] cAMP production was then determined by fitting to a 4-parametric logistic equation from a plot of cAMP level versus compound concentrations.
For orientation: Cyclic AMP is a second messenger, typically raised through Gs and lowered through Gi signalling.

Consider `COc1cc(C)c(-c2nnc(CO)s2)cc1C(=O)N[C@H]1[C@@H](C(=O)N[C@H](C)C2(C)CC2)[C@H]2CC[C@@H]1/C2=C\C1CC1` [compound 810], for which the concentration giving a half-maximal response (EC50) turned out to be 4.7 nM.

For `COc1ccc(C2CCCN2C(=O)CCO)cc1C(=O)N[C@@H]1C2CCC(C2=CC2CC2)[C@@H]1C(=O)Nc1ccc(F)c(C(F)(F)F)c1` (stereo partly drawn) [compound 667], the half-maximal effective concentration (EC50) was found to be 384 nM.

Consider `COc1ccc(-c2cc(C(COC(=O)NC3CCC3)C(F)(F)F)ccc2F)cc1C(=O)N[C@H]1[C@@H](C(=O)Nc2ccc(F)c(C(F)(F)F)c2)[C@H]2CC[C@@H]1/C2=C\C1CCCC1` (stereo partly drawn) [compound 893], for which the EC50 came to 2.2 nM.

Turning to `COc1ccc(-c2cccc(OC(F)(F)F)c2)cc1C(=O)N[C@@H]1C2CCC(/C2=C/C2CC2)[C@@H]1C(=O)Nc1ccc(F)c(C(F)(F)F)c1` (stereo partly drawn) [compound 281], the EC50 stood at 15 nM.

`COc1c(F)cc(C2=NOC3CC(CO)CC23)cc1C(=O)N[C@H]1[C@@H](C(=O)NCC(C)(C)C)[C@H]2CC[C@@H]1/C2=C\C1CC1` (stereo partly drawn) [compound 765]: the concentration for a half-maximal effect (EC50) worked out at 2.5 nM.

On to `COc1ccc(C2CCN(CC(C)(C)O)C2)cc1C(=O)N[C@@H]1C2CCC(C2=CC2CC2)[C@@H]1C(=O)Nc1ccc(F)c(C(F)(F)F)c1` (stereo partly drawn) [compound 601], for which the EC50 was determined as 108 nM.

For `COc1ccc(-c2ccc(C(CC(=O)O)C(F)(F)F)cc2F)cc1C(=O)N[C@H]1[C@@H](C(=O)Nc2ccc(F)c(C(F)(F)F)c2)[C@H]2CC[C@@H]1/C2=C\C1CCCC1` (stereo partly drawn) [compound 891], the 50% effective concentration (EC50) is 3.7 nM.

Turning to `COc1ccc(C2CC3COCC32)cc1C(=O)N[C@H]1[C@@H](C(=O)Nc2ccc(F)c(C(F)(F)F)c2)[C@H]2CC[C@@H]1/C2=C\C1CC1` (stereo partly drawn) [Example 725, (1R,2S,3R,4R,Z)-3-(5-(3-oxabicyclo[3.2.0]heptan-6-yl)-2-methoxybenzamido)-7-(cyclopropylmethylene)-N-(4-fluoro-3-(trifluoromethyl)phenyl)bicyclo[2.2.1]heptane-2-carboxamide], the EC50 stood at 360 nM.

Take `O=C(O)c1ccc(F)c(-c2ccc(OCCN3CCOCC3)c(C(=O)N[C@H]3[C@@H](C(=O)Nc4ccc(F)c(C(F)(F)F)c4)[C@H]4CC[C@@H]3/C4=C\C(F)(F)F)c2)c1` [Example 320, 6-fluoro-3′-(((1R,2R,3S,4R,Z)-3-((4-fluoro-3-(trifluoromethyl)phenyl)carbamoyl)-7-(2,2,2-trifluoroethylidene)bicyclo[2.2.1]heptan-2-yl)carbamoyl)-4′-(2-morpholinoethoxy)-[1,1′-biphenyl]-3-carboxylic acid]: the EC50 was determined as 1950 nM.

Take `O=C(N[C@H]1[C@@H](C(=O)Nc2ccc(F)c(C(F)(F)F)c2)[C@H]2CC[C@@H]1/C2=C\C1CC1)c1cc(C2=NOC3COCC23)ccc1OCCC(F)(F)F` (stereo partly drawn) [compound 780]: the EC50 was found to be 1.8 nM.

As to `COc1ccc(C2=NOC3C4CC(C(O)C4O)C23)cc1C(=O)N[C@H]1[C@@H](C(=O)Nc2ccc(F)c(C(F)(F)F)c2)[C@H]2CC[C@@H]1/C2=C\C1CC1` (single isomer, unassigned) [Example 448], the 50% effective concentration (EC50) was found to be 1.2 nM.

As to `COc1ccc(C2=NOC3COCC23)cc1C(=O)N[C@H]1[C@@H](C(=O)NC2CCC(C(F)(F)F)C2)[C@H]2CC[C@@H]1/C2=C\C1CC1` (stereo partly drawn) [compound 649], the EC50 is 250 nM.

Consider `COc1cc(F)c(F)cc1C(=O)N[C@@H]1C2CCC(/C2=C/c2ccccc2)[C@@H]1C(=O)Nc1cccc(S(=O)(=O)C(F)(F)F)c1` (stereo partly drawn) [Example 127], for which the EC50 stood at 49 nM.

Turning to `COc1ccc(C2=NOC(CO)C2)cc1C(=O)N[C@@H]1C2CCC(/C2=C/C2CC2)[C@@H]1C(=O)Nc1ccc(F)c(C(F)(F)F)c1` (stereo partly drawn) [compound 380], the EC50 was 23 nM.

For `COc1ccc(-c2c(C)noc2C)cc1C(=O)N[C@H]1[C@@H](C(=O)Nc2ccc(F)c(C(F)(F)F)c2)[C@H]2CC[C@@H]1C2=C(C)C` [compound 104], the concentration for a half-maximal effect (EC50) was found to be 1600 nM.

For the compound `COc1ccc(-c2cc(C(F)F)ccc2F)cc1C(=O)N[C@@H]1C2CCC(/C2=C/C2CC2)[C@@H]1C(=O)Nc1ccc(F)c(C(F)(F)F)c1` (stereo partly drawn) [compound 280], the concentration giving a half-maximal response (EC50) came to 12 nM.

For `O=C(N[C@H]1[C@@H](C(=O)Nc2ccc(F)c(C(F)(F)F)c2)[C@H]2CC[C@@H]1/C2=C\C1CC1)c1cc(C2=NOC3COCC23)ccc1F` (single isomer, unassigned) [compound 677], the EC50 worked out at 501 nM.

For `COc1ccc(-c2cc(C(OC(=O)Nc3ccccc3)C(F)(F)F)ccc2F)cc1C(=O)N[C@@H]1C2CCC(/C2=C/C2CC2)[C@@H]1C(=O)Nc1ccc(F)c(C(F)(F)F)c1` (single isomer, unassigned) [compound 229], the concentration giving a half-maximal response (EC50) was determined as 7 nM.

On to `COc1ccc(C2=NOC3CC(C(N)=O)CC23)cc1C(=O)N[C@H]1[C@@H](C(=O)Nc2ccc(F)c(C(F)(F)F)c2)[C@H]2CC[C@@H]1/C2=C\C1CC1` (single isomer, unassigned) [compound 459], for which the 50% effective concentration (EC50) was 2.5 nM.

As to `COc1ccc(-c2cc(C(=O)O)ccc2F)cc1C(=O)N[C@@H]1C2CCC(/C2=C/c2ccoc2)[C@@H]1C(=O)Nc1ccc(F)c(C(F)(F)F)c1` (stereo partly drawn) [compound 159], the EC50 amounted to 21 nM.

Take `COc1ccc(C2=NOC3CC(CO)CC23)cc1C(=O)N[C@H]1[C@@H](C(=O)Nc2ccc(F)c(C(F)(F)F)c2)[C@H]2CC[C@@H]1C2CC(F)(F)F` (stereo partly drawn) [compound 550]: the EC50 came to 34.9 nM.

`COc1ccc(C2CC(O)C(=O)N2C)cc1C(=O)N[C@@H]1C2CCC(/C2=C/C2CC2)[C@@H]1C(=O)Nc1ccc(F)c(C(F)(F)F)c1` (single isomer, unassigned) [Example 414]: the concentration for a half-maximal effect (EC50) was determined as 364 nM.

Turning to `COc1ccc(C2=NOC3CC(CO)CC23)cc1C(=O)N[C@@H]1C2CCC(/C2=C/C2CC2)[C@@H]1C(=O)Nc1ccc(F)c(C(F)(F)F)c1` (single isomer, unassigned) [Example 430], the EC50 is 194 nM.

With `COc1ccc(-c2cc([C@H](OC(=O)NC3CCC3)C(F)(F)F)ccc2F)cc1C(=O)N[C@@H]1C2CCC(/C2=C/C(C)C)[C@@H]1C(=O)Nc1ccc(F)c(C(F)(F)F)c1` (stereo partly drawn) [compound 925], the EC50 amounted to 5.2 nM.

With `COc1ccc(-c2cc(C(N)=O)on2)cc1C(=O)N[C@@H]1C2CCC(/C2=C/C2CC2)[C@@H]1C(=O)Nc1ccc(F)c(C(F)(F)F)c1` (stereo partly drawn) [compound 426], the EC50 is 45 nM.

As to `COc1ccc(-c2ccc(N3CCOCC3)c(C(=O)OC(C)(C)C)c2)cc1C(=O)N[C@H]1[C@@H](C(=O)Nc2ccc(F)c(C(F)(F)F)c2)[C@H]2CC[C@@H]1/C2=C\C1CC1` [Example 251, tert-butyl 3′-(((1R,2R,3S,4R,Z)-7-(cyclopropylmethylene)-3-((4-fluoro-3-(trifluoromethyl)phenyl)carbamoyl)bicyclo[2.2.1]heptan-2-yl)carbamoyl)-4′-methoxy-4-morpholino-[1,1′-biphenyl]-3-carboxylate], the EC50 turned out to be 36 nM.

On to `COc1ccc(-c2cc(C(OC(=O)NC3CC3)C(F)(F)F)ccc2F)cc1C(=O)N[C@@H]1C2CCC(/C2=C/C2CC2)[C@@H]1C(=O)Nc1ccc(F)c(C(F)(F)F)c1` (stereo partly drawn) [compound 208], for which the EC50 stood at 1 nM.

With `COc1ccc(-c2cc(S(=O)(=O)NC(C)(C)C)ccc2F)cc1C(=O)N[C@H]1[C@@H](C(=O)N[C@H](C)C2(C)CC2)[C@H]2CC[C@@H]1/C2=C\C1CC1` [compound 957], the EC50 was 5.3 nM.

`COc1ccc(C2CCN(C(=O)C(C)(C)O)C2)cc1C(=O)N[C@@H]1C2CCC(C2=CC2CC2)[C@@H]1C(=O)Nc1ccc(F)c(C(F)(F)F)c1` (stereo partly drawn) [compound 555]: the half-maximal effective concentration (EC50) came to 41.4 nM.

With `COc1c(F)cc(C2=NOC3CC(CO)CC23)cc1C(=O)N[C@H]1[C@@H](C(=O)NC23CC(C#N)(C2)C3)[C@H]2CC[C@@H]1/C2=C\C1CC1` (stereo partly drawn) [compound 775], the EC50 worked out at 4.4 nM.

On to `COc1ccc(C2=NO[C@H]3CC(CO)C[C@@H]23)cc1C(=O)N[C@H]1[C@@H](C(=O)Nc2ccc(F)c(C(F)(F)F)c2)[C@H]2CC[C@@H]1/C2=C\CC(C)C` (stereo partly drawn) [compound 822], for which the EC50 is 2.5 nM.

As for `COc1ccc(C2=NOC3CC(CO)CC23)cc1C(=O)N[C@H]1[C@@H](C(=O)NC23CC(C)(C2)C3)[C@H]2CC[C@@H]1/C2=C\C1CC1` (stereo partly drawn) [compound 774], the EC50 was 4.1 nM.

`COc1ccc(Br)cc1C(=O)N[C@@H]1C2CCC(/C2=C/C(F)(F)F)[C@@H]1C(=O)Nc1ccc(F)c(C(F)(F)F)c1` (stereo partly drawn) [compound 292]: the concentration giving a half-maximal response (EC50) was 1860 nM.
